Experimental data from ChEMBL document CHEMBL1148862, “Evaluation of the anti-hepatitis C virus effect of novel potent, selective, and orally bioavailable JNK and VEGFR kinase inhibitors” (Bioorg Med Chem Lett, 2007).

Key:
Hepatitis C virus = assay: Antiviral activity against HCV in Huh7-Rep cells by luciferase assay; type: functional, organism-based, Hepacivirus hominis
[1] = Cytotoxicity against MT4 cells by luciferase assay; type: cell-based; details: human
[2] = Cytotoxicity against Huh7 cells by luciferase assay; type: cell-based, Huh-7; details: human

| EC50 (Hepatitis C virus) | SMILES | CC50 [1] | CC50 [2] |
| --- | --- | --- | --- |
| 4 µM | Fc1ccc(Br)cc1-c1nc(Nc2ccccc2)c2nccnc2n1 | > 32 µM | > 32 µM |
| 3.65 µM | CN(c1ccncc1)c1nc(-c2cc(Br)ccc2F)nc2nccnc12 | > 32 µM | > 32 µM |
| 0.35 µM | Fc1ccc(Br)cc1-c1nc(Nc2ccncc2)c2nccnc2n1 | > 32 µM | > 32 µM |
| 0.084 µM | COc1cnc(-c2cc(Cl)ccc2F)nc1Nc1ccncc1C(=O)NCCCN1CCCC1=O | 5.8 µM | 17.7 µM |
| 2.6 µM | COc1cnc(-c2cc(Cl)ccc2F)nc1Nc1ccncc1C(=O)NC[C@H]1CCCO1 | > 32 µM | > 32 µM |
| 1.98 µM | CN(c1ccccc1)c1nc(-c2cc(Br)ccc2F)nc2nccnc12 | > 32 µM | > 32 µM |
| 0.85 µM | COc1cnc(-c2cc(Cl)ccc2F)nc1Nc1ccncc1C(=O)NCCNCCO | > 32 µM | > 32 µM |
| 1.91 µM | FC(F)(F)c1cccc(-c2nc(Nc3ccncc3)c3nccnc3n2)c1 | > 25 µM | > 25 µM |
| 3.6 µM | Cc1cc(Nc2nc(-c3cc(Br)ccc3F)nc3nccnc23)ccn1 | 13.2 µM | 12.9 µM |
| 4.6 µM | CCOC(=O)CNC(=O)c1cnccc1Nc1nc(-c2cc(Cl)ccc2F)ncc1OC | > 32 µM | > 32 µM |
| 0.55 µM | COc1cnc(-c2cc(Cl)ccc2F)nc1Nc1ccncc1C(=O)NCCCN1CCCCC1C (stereo not given) | 3.3 µM | 3.6 µM |
| 9.6 µM | COc1cnc(-c2cc(Cl)ccc2F)nc1Nc1ccncc1C(=O)NCCNCC(C)O (stereo not given) | > 32 µM | > 32 µM |
| 0.71 µM | CCc1cnccc1Nc1nc(-c2cc(Cl)ccc2F)nc2nccnc12 | > 32 µM | > 32 µM |
| 1.2 µM | COc1cnc(-c2cc(Cl)ccc2F)nc1Nc1ccncc1C(=O)NCC(F)(F)F | > 32 µM | > 32 µM |
| 1.96 µM | Fc1ccc(Br)cc1-c1nc(N(CCc2ccccc2)c2ccncc2)c2nccnc2n1 | 11 µM | 22.2 µM |
